The values below come from US12012398B2, “Bicyclic compounds as androgen receptor modulators” (NIDO BIOSCIENCES, INC., priority 2021, dated 2024).

Each structure is given as a SMILES string.

In general, IC50 refers to the midpoint of a concentration-inhibition curve.

One assay concerns LNCaP cells expressing ARR2PB-FireflyLuc and CMV-RenillaLuc. Kind of assay: LNCaP ARR2PB-FireflyLuc reporter assay, antagonist mode.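 Note: IC50 bins in nM.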 The class given is cell-based. As to conditions: +0.5 nM DHT, 48 h at 37° C., read-out: LNCap Antagonist Archive: IC50. The protocol: LNCaP cells expressing ARR2PB-FireflyLuc and CMV-RenillaLuc were treated with indicated concentrations of test compounds, enzalutamide (negative control), or DHT (positive control)+/−0.5 nM DHT for 48 h at 37° C. Fluorescent signals were read with the ImageXpress Micro Confocal System. Remaining activity (antagonist mode) was calculated as % Remaining Activity=100×[(ReadSample−LCave)/(HCave−LCave)] where HC is cells treated with 0.5 nM DHT only and LC is cells treated with 10 uM enzalutamide+0.5 nM DHT. Activation (agonist mode) was calculated as % Activation=100×[(ReadSample−LCave)/(HCave−LCave)] where HO is cells treated with 1 uM DHT and LC is cells treated with DMSO. Dose response curves and IC50 values were calculated using non-linear regression analysis in XLfit.
The designation “A” indicates an IC50 value of >10 μM, “B” indicates an IC50 value between 1 μM and 10 μM; “C” indicates an IC50 value between 100 nM and 1 μM; and “D” indicates an IC50 value of less than 100 nM.
(Reporter assays use an easily measured gene product as a stand-in for the process of interest.)
Turning to `CN(C(=O)c1cc2ccnc(Cl)c2n1C)C12CC(F)(C1)C2` [Example 128, 7-chloro-N-{3-fluorobicyclo[1.1.1]pentan-1-yl}-N,1-dimethylpyrrolo[2,3-c]pyridine-2-carboxamide], the IC50 fell in the range of 100 to 1000 nM.

Still in this assay, the particulars now being: Homo sapiens, LNCaP, 48 h, +0.5 nM DHT, 48 h at 37° C., read-out: LNCap Antagonist Archive: IC50.
On to `COCCN(C(=O)c1cc2cccc(Cl)c2[nH]1)c1ccc(C#N)c(F)c1` [Example 78, 7-Chloro-N-(4-cyano-3-fluorophenyl)-N-(2-methoxyethyl)-1H-indole-2-carboxamide], for which the IC50 lay in the range of 1000 to 10000 nM.
Turning to `CN(C(=O)c1cc2ccnc(C#N)c2n1C)C12CC(F)(C1)C2` [Example 133, 7-cyano-N-{3-fluorobicyclo[1.1.1]pentan-1-yl}-N,1-dimethylpyrrolo[2,3-c]pyridine-2-carboxamide], the IC50 lay in the range of 100 to 1000 nM.
Regarding `Cc1c(C(=O)N(C)C23CC(C2)C3)[nH]c2c(Cl)cccc12` [Example 104, N-[bicyclo[1.1.1]pentan-1-yl]-7-chloro-N,3-dimethyl-1H-indole-2-carboxamide], the IC50 was above 10000 nM.
`CN(C(=O)c1cc2cccc(Cl)c2[nH]1)C1CCOCC1` [Example 72, 7-chloro-N-methyl-N-(oxan-4-yl)-1H-indole-2-carboxamide]: the IC50 was above 10000 nM.
Still for that read-out and setting: with `CCN(C(=O)c1cc2ccnc(Cl)c2[nH]1)C12CC(F)(C1)C2` [Example 117, 7-chloro-N-ethyl-N-{3-fluorobicyclo[1.1.1]pentan-1-yl}-1H-pyrrolo[2,3-c]pyridine-2-carboxamide] the figure was 100 to 1000 nM.
In the case of `Cn1c(C(=O)NC23CC(C)(C2)C3)cc2ccnc(Cl)c21` [Example 142, 7-chloro-1-methyl-N-{3-methylbicyclo[1.1.1]pentan-1-yl}pyrrolo[2,3-c]pyridine-2-carboxamide], the IC50 lay within 1000 to 10000 nM.
Same read-out and setting: the value for `CN(C(=O)c1cc2ccc(F)cc2[nH]1)C1CC(F)(F)C1` [Example 92, N-(3,3-difluorocyclobutyl)-6-fluoro-N-methyl-1H-indole-2-carboxamide] was 100 to 1000 nM; that for `CC(C)N(Cc1ccco1)C(=O)c1cc2cccc(C#N)c2[nH]1` [Example 3, 7-cyano-N-(furan-2-ylmethyl)-N-isopropyl-1H-indole-2-carboxamide] was 1000 to 10000 nM; that for `CN(C(=O)c1cc2cccc(Cl)c2o1)c1ccc(F)cc1` [Example 35, 7-chloro-N-(4-fluorophenyl)-N-methyl-1-benzofuran-2-carboxamide] was 1000 to 10000 nM.
Turning to `Cn1c(C(=O)NC23CC(C2)C3)cc2ccc(C#N)cc21` [Example 155, N-(bicyclo[1.1.1]pentan-1-yl)-6-cyano-1-methyl-1H-indole-2-carboxamide], the IC50 lay within 1000 to 10000 nM.
The same measure, in the same setting: with `O=C(NC12CC(F)(C1)C2)c1cc2c(Cl)nccc2s1` [Example 158, 4-chloro-N-(3-fluorobicyclo[1.1.1]pentan-1-yl)thieno[3,2-c]pyridine-2-carboxamide] the figure was 100 to 1000 nM.
Still for that read-out and setting: the value for `CC(C)N(Cc1ccon1)C(=O)c1cc2ccc(F)cc2[nH]1` [Example 5, 6-fluoro-N-isopropyl-N-(1,2-oxazol-3-ylmethyl)-1H-indole-2-carboxamide] was 1000 to 10000 nM; that for `COCCNC(=O)c1cc2ccc(F)cc2n1-c1ncccn1` [Example 54, 6-fluoro-N-(2-methoxyethyl)-1-(pyrimidin-2-yl)-1H-indole-2-carboxamide] was above 10000 nM; that for `CCn1c(C(=O)N(C)C23CC(F)(C2)C3)cc2ccnc(C#N)c21` [Example 151, 7-cyano-1-ethyl-N-(3-fluorobicyclo[1.1.1]pentan-1-yl)-N-methyl-1H-pyrrolo[2,3-c]pyridine-2-carboxamide] was 100 to 1000 nM.
Take `O=C(NC12CC(C1)C2)c1[nH]c2c(Cl)cccc2c1Cl` [Example 106, N-[bicyclo[1.1.1]pentan-1-yl]-3,7-dichloro-1H-indole-2-carboxamide]: the IC50 lay within 1000 to 10000 nM.
On the same count and under the same terms, the value for `CN(C(=O)c1cc2cccc(Cl)c2[nH]1)c1ccccn1` [Example 28, 7-chloro-N-methyl-N-(pyridin-2-yl)-1H-indole-2-carboxamide] was 1000 to 10000 nM; that for `COCCN(C(=O)c1cc2ccc(F)cc2[nH]1)c1cnn(C)c1` [Example 49, 6-fluoro-N-(2-methoxyethyl)-N-(1-methylpyrazol-4-yl)-1H-indole-2-carboxamide] was above 10000 nM.
Still for that read-out and setting: with `CC1OCCC1N(C)C(=O)c1cc2cccc(Cl)c2[nH]1` (centres unmarked) [Example 80, 7-chloro-N-methyl-N-(2-methyloxolan-3-yl)-1H-indole-2-carboxamide] the figure was 1000 to 10000 nM; with `COc1nccc2cc(C(=O)N(C)C34CC(C3)C4)[nH]c12` [Example 96, N-[bicyclo[1.1.1]pentan-1-yl]-7-methoxy-N-methyl-1H-pyrrolo[2,3-c]pyridine-2-carboxamide], 1000 to 10000 nM.
On to `CN(C(=O)c1nc2ccc(F)cc2[nH]1)c1ccccc1` [Example 23, 5-fluoro-N-methyl-N-phenyl-3H-1,3-benzodiazole-2-carboxamide], for which the IC50 was above 10000 nM.
As to `CC(C)N(Cc1cnco1)C(=O)c1cc2ccc(F)cc2[nH]1` [Example 6, 6-fluoro-N-isopropyl-N-(1,3-oxazol-5-ylmethyl)-1H-indole-2-carboxamide], the IC50 is 1000 to 10000 nM.
The same measure, in the same setting: the value for `CN(C(=O)c1cc2cccc(C(F)(F)F)c2o1)c1ccc(F)cc1` [Example 36, N-(4-fluorophenyl)-N-methyl-7-(trifluoromethyl)benzofuran-2-carboxamide] was 1000 to 10000 nM; that for `CN(C(=O)c1cc2ccnc(Cl)c2n1C)C12CC(F)(C1)C2` [Example 128, 7-chloro-N-{3-fluorobicyclo[1.1.1]pentan-1-yl}-N,1-dimethylpyrrolo[2,3-c]pyridine-2-carboxamide] was below 100 nM.
Still for that read-out and setting: the value for `COCCN(C(=O)c1cc2cccc(Cl)c2[nH]1)C12CC(C1)C2` [Example 90, N-[bicyclo[1.1.1]pentan-1-yl]-7-chloro-N-(2-methoxyethyl)-1H-indole-2-carboxamide] was 1000 to 10000 nM; that for `Cn1c(C(=O)NC2CC3(CCC3)C2)cc2ccnc(Cl)c21` [Example 150, 7-chloro-1-methyl-N-{spiro[3.3]heptan-2-yl}pyrrolo[2,3-c]pyridine-2-carboxamide] was 1000 to 10000 nM; that for `Cn1c(C(=O)NC23CC(F)(C2)C3)cc2ccnc(Cl)c21` [Example 110, 7-chloro-N-[3-fluorobicyclo[1.1.1]pentan-1-yl]-1-methylpyrrolo[2,3-c]pyridine-2-carboxamide] was 100 to 1000 nM.
With `CC(C)N(Cc1ccncc1)C(=O)c1cc2ccc(F)cc2[nH]1` [Example 10, 6-fluoro-N-isopropyl-N-(pyridin-4-ylmethyl)-1H-indole-2-carboxamide], the IC50 was in the range of 1000 to 10000 nM.
Still for that read-out and setting: with `O=C(NC1CC(F)(F)C1)c1cc2ccnc(Cl)c2[nH]1` [Example 100, 7-chloro-N-(3,3-difluorocyclobutyl)-1H-pyrrolo[2,3-c]pyridine-2-carboxamide] the figure was 100 to 1000 nM; with `C[Si](C)(C)CCOCn1c(C(=O)NC23CC(O)(C2)C3)cc2cccc(Cl)c21` [Example 88, 7-chloro-N-(3-hydroxybicyclo[1.1.1]pentan-1-yl)-1-((2-(trimethylsilyl)ethoxy)methyl)-1H-indole-2-carboxamide], 1000 to 10000 nM; with `Cc1nccc2cc(C(=O)NC34CCC(C3)C4)n(C)c12` [Example 152, N-(bicyclo[2.1.1]hexan-1-yl)-1,7-dimethyl-1H-pyrrolo[2,3-c]pyridine-2-carboxamide], 1000 to 10000 nM.
Same read-out and setting: the value for `Cn1c(C(=O)NC(C)(C)C)cc2ccnc(Cl)c21` [Example 148, N-tert-butyl-7-chloro-1-methylpyrrolo[2,3-c]pyridine-2-carboxamide] was 100 to 1000 nM.
Still for that read-out and setting: with `CC(C)N(Cc1ccno1)C(=O)c1cc2ccc(F)cc2[nH]1` [Example 8, 6-fluoro-N-isopropyl-N-(1,2-oxazol-5-ylmethyl)-1H-indole-2-carboxamide] the figure was 1000 to 10000 nM.
`COCCN(C(=O)c1cc2ccc(F)cc2[nH]1)c1ccc(C#N)cc1` [Example 51, N-(4-cyanophenyl)-6-fluoro-N-(2-methoxyethyl)-1H-indole-2-carboxamide]: the IC50 was in the range of 1000 to 10000 nM.
The same measure, in the same setting: the value for `CN(C)C(=O)c1cc2cccc(Cl)c2[nH]1` [Example 29, 7-chloro-N,N-dimethyl-1H-indole-2-carboxamide] was 1000 to 10000 nM; that for `COCCN(C(=O)c1cc2cccc(Cl)c2[nH]1)c1ccc(C#N)c(C)c1` [Example 76, 7-chloro-N-(4-cyano-3-methylphenyl)-N-(2-methoxyethyl)-1H-indole-2-carboxamide] was 1000 to 10000 nM.
The same measure, in the same setting: with `CN(CC1CC1)C(=O)c1cc2cccc(Cl)c2[nH]1` [Example 32, 7-chloro-N-(cyclopropylmethyl)-N-methyl-1H-indole-2-carboxamide] the figure was 1000 to 10000 nM.
The same measure, in the same setting: with `O=C(NC12CC(C1)C2)c1cc2ccncc2[nH]1` [Example 103, N-[bicyclo[1.1.1]pentan-1-yl]-1H-pyrrolo[2,3-c]pyridine-2-carboxamide] the figure was above 10000 nM; with `COCCN(C(=O)c1cc2cccc(Cl)c2[nH]1)c1ccc(C#N)cc1C` [Example 77, 7-chloro-N-(4-cyano-2-methylphenyl)-N-(2-methoxyethyl)-1H-indole-2-carboxamide], above 10000 nM; with `CC(C)N(Cc1ncco1)C(=O)c1cc2ccc(F)cc2[nH]1` [Example 2, 6-fluoro-N-isopropyl-N-(1,3-oxazol-2-ylmethyl)-1H-indole-2-carboxamide], above 10000 nM.
Turning to `O=C(NC12CC(C1)C2)c1[nH]c2c(Cl)cccc2c1C1CC1` [Example 105, N-[bicyclo[1.1.1]pentan-1-yl]-7-chloro-3-cyclopropyl-1H-indole-2-carboxamide], the IC50 fell in the range of 1000 to 10000 nM.
